35 molecules from patent US20050197350A1, “Novel quinoline, tetrahydroquinazoline, and pyrimidine derivatives and methods of treatment related to the use thereof” (TAISHO PHARMACEUTICAL CO., LTD., priority 2003, published 2005) can be followed below.

SMILES strings stand for the structures.

For one assay, the system named is MCH receptors. Put plainly: MCH receptor activity class (method not given). The following applies: MCH receptor activity class 1-3 (percent of control at 10^-7 M or IC50).
Consider `CN(C)c1nc(N[C@H]2CC[C@@H](CNC(=O)NCc3ccccc3Cl)CC2)nc2c1CCCC2` [compound 2467], for which the class is recorded as 3 (Class 3 The value of percent of control at 10^−7 M was more than 60% or the value of IC50 was more than 200 nM.).
On to `Cc1noc(-c2ccccc2)c1NC(=O)NC[C@H]1CC[C@@H](Nc2cc(N(C)C)c3ccccc3n2)CC1` [compound 2391], for which the class is recorded as 3 (Class 3 The value of percent of control at 10^−7 M was more than 60% or the value of IC50 was more than 200 nM.).

Staying with this assay, now noted: MCH receptor; class by percent of control at 10^-7 M or IC50.
`COc1cccc(C(=O)N[C@H]2CC[C@@H](Nc3cc(N(C)C)c4ccccc4n3)CC2)c1` [compound 20, N-(cis-4-{[4-(dimethylamino)quinolin-2-yl]amino}cyclohexyl)-3-methoxybenzamide]: the class is 2 (Class 2: The value of percent of control at 10^−7 M was from 40% to 60% or the value of IC′50 was from 50 nM to 200 nM.).
`CN(C)c1nc(N[C@H]2CC[C@@H](NC(=S)Nc3cc(Cl)c(Cl)c(Cl)c3Cl)CC2)nc2c1CCCC2` [compound 1999]: the class is on record as 3 (Class 3 The value of percent of control at 10^−7 M was more than 60% or the value of IC50 was more than 200 nM.).
On to `Cc1cc(C(=O)N[C@H]2CC[C@@H](Nc3cc(N(C)C)c4ccccc4n3)CC2)nn1C(C)(C)C` [compound 90], for which the class was 3 (Class 3 The value of percent of control at 10^−7 M was more than 60% or the value of IC50 was more than 200 nM.).
On the same count and under the same terms, in the case of `COc1ccc(CCNC(=S)N[C@H]2CC[C@@H](Nc3nc4c(c(N(C)C)n3)CCCC4)CC2)cc1OC` [compound 1997] it was 3 (Class 3 The value of percent of control at 10^−7 M was more than 60% or the value of IC50 was more than 200 nM.).

Staying with this assay, now noted: activity class 1-3: percent of control at 10^-7 M or IC50.
As for `CN(C)c1cc(N[C@H]2CC[C@@H](CNC(=O)Oc3ccc4ccccc4c3)CC2)nc2ccccc12` [compound 1569], the class is 3 (Class 3 The value of percent of control at 10^−7 M was more than 60% or the value of IC50 was more than 200 nM.).
As for `CC(C)[C@@H]1CC[C@@H](C)C[C@H]1OC(=O)NC[C@H]1CC[C@@H](Nc2cc(N(C)C)c3ccccc3n2)CC1` [compound 1573], the class is 3 (Class 3 The value of percent of control at 10^−7 M was more than 60% or the value of IC50 was more than 200 nM.).
As to `CN(C)c1nc(N[C@H]2CC[C@@H](NC(=O)Nc3ccc(F)cc3)CC2)nc2c1CCCC2` [compound 1664], the class is 2 (Class 2: The value of percent of control at 10^−7 M was from 40% to 60% or the value of IC′50 was from 50 nM to 200 nM.).
On to `CCCCCCCCOC(=O)N[C@H]1CC[C@@H](Nc2nc3c(c(N(C)C)n2)CCCC3)CC1` [compound 1586], for which the class is given as 3 (Class 3 The value of percent of control at 10^−7 M was more than 60% or the value of IC50 was more than 200 nM.).

The assay is the same for the next values; noted with them: class 1-3 by percent of control at 10^-7 M or IC50.
With `CCCCCC(=O)N[C@H]1CC[C@@H](Nc2nc3c(c(N(C)C)n2)CCCC3)CC1` [compound 476], the class is on record as 2 (Class 2: The value of percent of control at 10^−7 M was from 40% to 60% or the value of IC′50 was from 50 nM to 200 nM.).

Staying with this assay, now noted: class by percent of control at 10^-7 M or IC50.
For `CN(C)c1nc(N[C@H]2CC[C@@H](NC(=S)Nc3c(F)cc(Br)cc3Br)CC2)nc2c1CCCC2` [compound 1780, N-(2,4-dibromo-6-fluorophenyl)-N′-(cis-4-{[4-(dimethylamino)-5,6,7,8-tetrahydroquinazolin-2-yl]amino}cyclohexyl)thiourea], the class is 2 (Class 2: The value of percent of control at 10^−7 M was from 40% to 60% or the value of IC′50 was from 50 nM to 200 nM.).
The same measure, in the same setting: in the case of `CN(C)c1cc(N[C@H]2CC[C@@H](NC(=O)c3csc([N+](=O)[O-])c3)CC2)nc2ccccc12` [compound 767, N-(cis-4-{[4-(dimethylamino)quinolin-2-yl]amino}cyclohexyl)-5-nitrothiophene-3-carboxamide] it was 1 (Class 1: The value of percent of control at 10^−7 M was less than 40% or the value of IC50 was less than 50 nM.); in that of `CN(C)c1cc(N[C@H]2CC[C@@H](CNC(=O)c3cn(Cc4ccccc4)c4ccccc34)CC2)nc2ccccc12` [compound 805], 3 (Class 3 The value of percent of control at 10^−7 M was more than 60% or the value of IC50 was more than 200 nM.); in that of `Cc1cc(Cl)ccc1NC(=S)N[C@H]1CC[C@@H](Nc2nc3c(c(N(C)C)n2)CCCC3)CC1` [compound 1766, N-(4-chloro-2-methylphenyl)-N′-(cis-4-{[4-(dimethylamino)-5,6,7,8-tetrahydroquinazolin-2-yl]amino}cyclohexyl)thiourea], 1 (Class 1: The value of percent of control at 10^−7 M was less than 40% or the value of IC50 was less than 50 nM.).
For the molecule `CCC(C(=O)NC[C@H]1CC[C@@H](Nc2nc3c(c(N(C)C)n2)CCCC3)CC1)c1ccccc1` (relative stereo) [compound 628], the class is reported as 3 (Class 3 The value of percent of control at 10^−7 M was more than 60% or the value of IC50 was more than 200 nM.).
For `COc1ccc(CNC[C@H]2CC[C@@H](Nc3cc(N(C)C)c4ccccc4n3)CC2)cc1OC` [compound 1193], the class is recorded as 3 (Class 3 The value of percent of control at 10^−7 M was more than 60% or the value of IC50 was more than 200 nM.).
As for `CN(C)c1nc(N[C@H]2CC[C@@H](NC(=O)CCc3ccccc3O)CC2)nc2c1CCCC2` [compound 955], the class is listed as 2 (Class 2: The value of percent of control at 10^−7 M was from 40% to 60% or the value of IC′50 was from 50 nM to 200 nM.).
For `CN(C)c1ccnc(N[C@H]2CC[C@@H](NC(=O)c3ccccc3C(=O)c3cccc4ccccc34)CC2)n1` [compound 888], the class is on record as 3 (Class 3 The value of percent of control at 10^−7 M was more than 60% or the value of IC50 was more than 200 nM.).
Turning to `CN(C)c1nc(N[C@H]2CC[C@@H](CNCc3ccc(N(C)C)c4ccccc34)CC2)nc2c1CCCC2` [compound 1402], the class is 2 (Class 2: The value of percent of control at 10^−7 M was from 40% to 60% or the value of IC′50 was from 50 nM to 200 nM.).
As for `Cc1cc(C)c2occ(CN[C@H]3CC[C@@H](Nc4nc5c(c(N(C)C)n4)CCCC5)CC3)c(=O)c2c1` [compound 1350], the class is 2 (Class 2: The value of percent of control at 10^−7 M was from 40% to 60% or the value of IC′50 was from 50 nM to 200 nM.).
The same measure, in the same setting: in the case of `Cc1cc(C)c(NC(=O)Nc2ccc(OC(F)(F)F)cc2)c(C(=O)N[C@H]2CC[C@@H](Nc3nccc(N(C)C)n3)CC2)c1` [compound 857] it was 3 (Class 3 The value of percent of control at 10^−7 M was more than 60% or the value of IC50 was more than 200 nM.); in that of `CN(C)c1ccnc(N[C@H]2CC[C@@H](CNC(=O)C(c3ccc(Cl)cc3)c3ccc(Cl)cc3)CC2)n1` [compound 937, 2,2-bis(4-chlorophenyl)-N-[(cis-4-{[4-(dimethylamino)pyrimidin-2-yl]amino}cyclohexyl)methyl]acetamide], 1 (Class 1: The value of percent of control at 10^−7 M was less than 40% or the value of IC50 was less than 50 nM.).
Still for that read-out and setting: in the case of `CN(C)c1nc(N[C@H]2CC[C@@H](CNC(=O)c3cccs3)CC2)nc2c1CCCC2` [compound 614] it was 3 (Class 3 The value of percent of control at 10^−7 M was more than 60% or the value of IC50 was more than 200 nM.).
Take `Cc1sc(-c2ccccc2)nc1CC(=O)N[C@H]1CC[C@@H](Nc2cc(N(C)C)c3ccccc3n2)CC1` [compound 712]: the class was 3 (Class 3 The value of percent of control at 10^−7 M was more than 60% or the value of IC50 was more than 200 nM.).
Turning to `CN(C)c1nc(N[C@H]2CC[C@@H](NC(=S)Nc3ccc4c(c3)OCCO4)CC2)nc2c1CCCC2` [compound 1784], the class is recorded as 3 (Class 3 The value of percent of control at 10^−7 M was more than 60% or the value of IC50 was more than 200 nM.).
For the molecule `CCc1cccc(C)c1NC(=S)N[C@H]1CC[C@@H](Nc2cc(N(C)C)c3ccccc3n2)CC1` [compound 2280], the class is 3 (Class 3 The value of percent of control at 10^−7 M was more than 60% or the value of IC50 was more than 200 nM.).
Same read-out and setting: the figure for `CC(C)c1ccccc1NC(=O)N[C@H]1CC[C@@H](Nc2cc(N(C)C)c3ccccc3n2)CC1` [compound 2110] is 3 (Class 3 The value of percent of control at 10^−7 M was more than 60% or the value of IC50 was more than 200 nM.); for `COc1ccc2ccccc2c1CN[C@H]1CC[C@@H](Nc2nc3c(c(N(C)C)n2)CCCC3)CC1` [compound 1332] it is 3 (Class 3 The value of percent of control at 10^−7 M was more than 60% or the value of IC50 was more than 200 nM.).
Same read-out and setting: the figure for `CN(C)c1cc(N[C@H]2CC[C@@H](NC(=O)Nc3ccc4c(c3)OCO4)CC2)nc2ccccc12` [compound 2148] is 3 (Class 3 The value of percent of control at 10^−7 M was more than 60% or the value of IC50 was more than 200 nM.).

The assay is the same for the next values; noted with them: class by percent of control at 10^−7 M or IC50.
On to `Cc1cnc(NC[C@H]2CC[C@@H](NC(=O)c3ccc4c(c3)OC(F)(F)O4)CC2)nc1N(C)C` [compound 2730], for which the class was 3 (Class 3 The value of percent of control at 10^−7 M was more than 60% or the value of IC50 was more than 200 nM.).
Still for that read-out and setting: the figure for `Cc1cnc(N[C@H]2CC[C@@H](NS(=O)(=O)c3ccccc3)CC2)nc1N(C)C` [compound 2995, N-(cis-4-{[4-(dimethylamino)-5-methylpyrimidin-2-yl]amino}cyclohexyl)benzenesulfonamide] is 3 (Class 3 The value of percent of control at 10^−7 M was more than 60% or the value of IC50 was more than 200 nM.).
Regarding `COc1ccc(NC(=O)[C@H]2CC[C@@H](Nc3ncc(C)c(N(C)C)n3)CC2)cc1` [compound 2786], the class is on record as 3 (Class 3 The value of percent of control at 10^−7 M was more than 60% or the value of IC50 was more than 200 nM.).
Same read-out and setting: in the case of `Cc1cc(N(C)C)nc(N[C@H]2CC[C@@H](NC(=O)c3cccc(Cl)c3)CC2)n1` [compound 2987] it was 1 (Class 1: The value of percent of control at 10^−7 M was less than 40% or the value of IC50 was less than 50 nM.); in that of `Cc1cc(N(C)C)nc(N[C@H]2CC[C@@H](C(=O)NCc3cc(C(F)(F)F)cc(C(F)(F)F)c3)CC2)n1` [compound 2814, cis-N-[3,5-bis(trifluoromethyl)benzyl]-4-{[4-(dimethylamino)-6-methylpyrimidin-2-yl]amino}cyclohexanecarboxamide], 1 (Class 1: The value of percent of control at 10^−7 M was less than 40% or the value of IC50 was less than 50 nM.).
